Tests used:
[1] = system: HCT-116 cells; experiment: Apoptosis detection by propidium iodide / Annexin V-FITC; type: cell-based, Human; design: FACS analysis of apoptosis detection, Viable cells / FACS analysis of apoptosis detection, Early apoptotic / FACS analysis of apoptosis detection, Late apoptotic / FACS analysis of apoptosis detection, Necrotic: unit not given here
Description: The day before induction of apoptosis, 1 × 10^6cells per well were plated on a 6-well plate using respective media with 10% FBS and 1% PenStrep, incubated overnight at 37 °C at 5% CO2.The media was replaced with test solutions of different concentrations in the media containing 10% FBS. The treated cells were incubated for 24 h at normal culture conditions. The cells were further harvested and the well contents were completely transferred into the sterile FACS tubes. The cell contents were centrifuged at 2000 rpm for 5 min and the supernatant was discarded. After centrifugation, the cells were washed twice with cold PBS and then resuspended in 1 ml of binding buffer at a concentration of 1× 10^6 cells/ml. […] of the cell suspension (5× 10^5 cells) were then transferred into a fresh FACS tube (Vermes et al. [1995]). Further, cells were gently mixed with […] of propidium iodide and […] of Annexin V before being incubated for 20 minutes at room temperature in the dark. The cells were immediately analyzed by flow cytometer within a duration of an hour.

[2] = system: CDK2 gene expression in HCT 116 cell lines; experiment: Semi-quantitative RT-PCR gene expression of CDK2; type: cell-based, Human; conditions: for Relative gene expression of CDK2: control 1.00
Description: HCT-116 cells were trypsinized and added to 1 ml TRIzol and vortexed. Samples were then allowed to stand for 5 min at room temperature. 0.2 ml of chloroform per 1 ml of TRIzol was added. The tube was later stoppered and shaken vigorously for 15 s and was allowed to stand at room temperature for 5 min. The resulting mixture was then centrifuged at 10,000×rpm for 15 min at […]. The upper aqueous phase was transferred to another clean tube followed by the addition of 0.5 ml of isopropanol per 1 ml of TRIzol. The contents were mixed gently by inverting the sample 5 times and incubated at room temperature for 5 min. Further, the tubes were centrifuged at 10,000×rpm for the next 10 min at […]. Later, the supernatant was discarded and the RNA pellet was washed by adding 1 ml of 70% ethanol. Further, the contents were mixed gently by inverting the sample for few times. It was again centrifuged for 5 min at 14,000×rpm at […]. In the later step, the supernatant was discarded by inverting the tube on a clean tissue paper. Later, the pellet was dried by incubating in a […] for 5 min at 55 °C. The pellet was then resuspended in 25 µL of DEPC (Diethyl pyro carbonate) treated water.
A semi-quantitative reverse transcriptase polymerase chain reaction (RT-PCR) was carried out using Techno Prime system to determine the levels of β-actin and CDK-2 and CyclinA mRNA expression. The cDNA was synthesized from 2 µg of RNA using the Verso cDNA synthesis kit (Thermo Fischer Scientific) with oligo dT (deoxy thymine) primer according to the manufacturer’s instructions. The reaction volume was set to 20 μL and the cDNA synthesis was performed at 42 °C for 60 min followed by RT inactivation at 85 °C for 5 min (Murakami [1996]).
The PCR mixture (final volume of 20 µL) contains 1 µL of cDNA, 10 µL of Red Taq Master Mix 2× (Ampliqon) and 1 µM of each complementary primer specific for CDK2 and CyclinA and β-actin (internal control) sequence. The samples are denatured at 95 °C for 5 min and amplified using 35 cycles of 95 °C for 30 s then again at 55 °C for 30 s and 72 °C for 1 min for β-actin; the […] annealing was finally set to 56 °C followed by the final elongation at 72 °C for 10 min. […] Ten microliters of the final amplification product are run on a 2% ethidium-stained agarose gel and photographed. Quantification of the results could be accomplished by measuring the optical density of the bands, using the computerized imaging program Image J. The values were normalized to β-actin intensity levels (Bookout and Mangelsdorf [2003]).

[3] = target: CDK2/Cyclin A (Homo sapiens, UniProt P24941); experiment: CDK2/cyclin A inhibitory assay, Z'-LYTE FRET kinase assay; type: biochemical; conditions: concentration of 100 micro molar; 1000 ng/ml kinase, 1000 µM ATP
Source text: Z’-LYTE® technology involves homogeneous assay design based on FRET and is a universal platform for both screening as well as profiling protein kinases. The assay uses a peptide substrate labeled with two different fluorophores, coumarin donor and fluorescein acceptor on each end. These two fluorophores make up a FRET pair, which allows the transfer of energy when both are present on the same molecule. The initial kinase reaction transfers the ϒ-phosphate of ATP to a tyrosine or serine/threonine residue on the substrate. In a secondary reaction, referred to as the development reaction, a site-specific protease recognizes and cleaves only non-phosphorylated peptide, while phosphorylated substrate remains uncleaved. […] Upon excitation of Coumarin at 400 nm, the FRET signal is measured as a ratio between the Coumarin donor emission at 445–460 nm and the fluorescein acceptor emission at 520–535 nm(Lebakken et al. [2007]).
Initial ten-fold and two-fold dilutions of Kinase and ATP concentrations were used to choose the optimal Kinase and ATP concentration based on the % Phosphorylation.
The assay was carried out according to the kit instructions (384 well format). Briefly, 5X kinase buffer [250 mM HEPES (pH 7.5), 50 mM MgCl2, 5 mM EGTA, 0.05% BRIJ-35] was diluted to 1X using distilled water. The phosphor peptide positive control (Z’-LYTE® Tyr 4 phospho-peptide) and the non-phosphorylated negative control (Z’-LYTE® Tyr 4 peptide) were then diluted to 1:500 with 1× kinase buffer to 2 μM. […] Working development solution was then made by diluting 12 μL of the provided stock solution with 388 μL of the provided development buffer. Aliquots (20 μL) of each peptide mixture were then added to the wells of a Corning 3914 solid white microplate in replicates of 8. The development reaction was initiated by the addition of 10 μL of working development-solution to all the wells. Further, the plates were allowed to incubate at room temperature for 60 min. Reactions were then stopped by the addition of 10 μL of stop solution (Jia et al. [2008]).
Reactions were quantitated using a Tecan Robotic Microplate Reader. Reader control, blank subtraction, ratio metric calculations and finally graph plotting were carried out using Gen5™ Data Analysis Software.
The CDK2/Cyclin A assay was carried out as per the manufacturer’s instruction using suitable controls and standard.
The inhibitory assay was carried out using the stock of 10 mM in DMSO. Samples were further serially diluted to obtain concentrations of 100 μM. The concentrations were chosen based on the IC50 values obtained in the MTT assay. A total of 23 analogues were selected for the assay based on their antiproliferative activity. Further, selected compounds were screened and tested against the target CDK2/Cyclin A, and their % phosphorylation and % inhibition were recorded.

`COc1ccc(/C=C2\Oc3c(c(OC)cc(OC)c3C3=CCN(C(C)C)CC3)C2=O)cc1OC` [NISOA4] was tested, and the “FACS analysis of apoptosis detection, Early apoptotic” value ([1]; 12.5 µM) was 6.36, the “FACS analysis of apoptosis detection, Late apoptotic” value ([1]; 12.5 µM) was 28.95 and the “FACS analysis of apoptosis detection, Necrotic” value ([1]; 12.5 µM) was 9.61. For the same compound, the “FACS analysis of apoptosis detection, Viable cells” value ([1]; 12.5 µM) was 55.08, the “FACS analysis of apoptosis detection, Early apoptotic” value ([1]; 25 µM) was 0.17 and the “FACS analysis of apoptosis detection, Late apoptotic” value ([1]; 25 µM) was 52.11. For the same compound, the “FACS analysis of apoptosis detection, Necrotic” value ([1]; 25 µM) was 24.06, the “FACS analysis of apoptosis detection, Viable cells” value ([1]; 25 µM) was 23.66 and the “Band intensity of PCR amplicon of genes, CDK2” value ([2]; 12.5 μM) was 16,091.61. The “Normalized (CDK2 to β-actin)” value ([2]; 12.5 μM) was 0.63, the “expression of CDK2 (in words)” value ([2]; 12.5 μM and 25 μM, HCT 116) was “clear dose-dependent decrease” and the “Relative gene expression of CDK2” value ([2]; 12.5 μM) was 0.59. For the same compound, the “Band intensity of PCR amplicon of genes, CDK2” value ([2]; 25 μM) was 13,190.418, the “Normalized (CDK2 to β-actin)” value ([2]; 25 μM) was 0.52 and the “Relative gene expression of CDK2” value ([2]; 25 μM) was 0.49. For the same compound, the “% inhibition on CDK2/cyclin A” value [3] was 42.787%.
